In patent US20100004267A1, “LIQUID PREPARATION” (ASUBIO PHARMA CO., LTD., priority 2006, published 2010):

Legend:
[1] = Examination on prevention of light decomposition (Test example 5); type: physicochemical
Experimental: To 800 mL of purified water, 100 g of Captisol (available from CyDex Inc.) serving as a solubilizing agent, 1 g of sodium bisulfite (available from JUNSEI CHEMICAL) serving as an antioxidant, and 5 g of SUN N8075 were sequentially dissolved, and the volume was adjusted to precisely 1,000 mL with purified water, and filtered under reduced pressure. Then each 20 mL of the solution was filled into a colorless ampule (Silicoat ampule, white, 20 mL capacity, available from FUJI GLASS CO., LTD.) and a brown ampule (Silicoat ampule, brown, 20 mL capacity, available from FUJI GLASS CO., LTD.), and then the ampule was sealed. Using autoclave (FLC-M09S30WZ, available from SAKURA SEIKI Co., Ltd.), autoclave sterilization was conducted in a setting condition: 121° C./24 minutes.
A sample of each of these ampules was stored under D65 lamp 2,000 Lux, and irradiated with 40, 80, 120×10^4 Lux, and then SUN N8075 related substances were measured with a HPLC device. The related substances were calculated as a peak ratio of the total related substances, relative to SUN N8075 peak area.
To 150 mL of purified water, a predetermined amount (none, 0.05 g, 0.1 g and 0.2 g) of sodium bisulfite (available from JUNSEI CHEMICAL) serving as an antioxidant, and 1 g of SUN N8075 were sequentially dissolved, and the volume was adjusted to precisely 200 mL with purified water. After filtering under reduced pressure, the solution was bubbled with nitrogen gas for 5 minutes. Then 20 mL of the solution was immediately filled into a brown ampule (Silicoat ampule, brown, 20 mL capacity, available from FUJI GLASS CO., LTD.) having subjected to nitrogen gas replacement, and then the ampule was sealed. Using autoclave (FLC-M09S30WZ, available from SAKURA SEIKI Co., Ltd.), autoclave sterilization was conducted in a setting condition: 121° C./24 minutes.
A sample of each of these ampules was stored under D65 lamp 2,000 Lux, and irradiated with 40×10^4 Lux, and then SUN N8075 related substances were measured with a HPLC device. The related substances were calculated as a peak ratio of the total related substances, relative to SUN N8075 peak area.
As a control sample, 1 g of SUN N8075 was dissolved into 150 mL of purified water, and the volume was adjusted precisely to 200 mL with purified water. Then the solution was filtered under reduced pressure, and bubbled with nitrogen gas for 5 minutes. Then 20 mL of the solution was immediately filled into a brown ampule (Silicoat ampule, brown, 20 mL capacity, available from FUJI GLASS CO., LTD.) replaced with nitrogen gas, and then the ampule was sealed.
This was prepared as a control sample at the start of the test, and SUN N8075 related substances were measured in the similar manner.

aorta of rat = experiment: Blood vessel stimulus and precipitation at administration site (Test example 2); type: in vivo
Experimental: Saline, a solution in saline to which 0.1% of Tween80 was added, and a solution in saline to which 0.5, 1.0, 2.0 or 3.0% of β-cyclodextrin sulfobutyl ether sodium salt dissolving various concentrations described in Table 2 below of SUN N8075 were prepared, and administered to aorta of rat, and precipitation of SUN N8075 and presence of stimulus (blood vessel stimulus) on tissues at the site of administration were evaluated.

[2] = Control: without sodium bisulfite, brown ampule, Start
[3] = N2 gas replacement, sodium bisulfite 0.05%, brown ampule, irradiation 40 ×10^4 LUX
[4] = N2 gas replacement, sodium bisulfite 0.1%, brown ampule, irradiation 40 ×10^4 LUX
[5] = N2 gas replacement, sodium bisulfite […], brown ampule, irradiation 40 ×10^4 LUX
[6] = N2 gas replacement, without sodium bisulfite, brown ampule, irradiation 40 ×10^4 LUX
[7] = without N2 gas replacement, sodium bisulfite 0.1%, Captisol 10%, brown ampule, irradiation 40 ×10^4 LUX
[8] = without N2 gas replacement, sodium bisulfite 0.1%, Captisol 10%, brown ampule, irradiation 80 ×10^4 LUX
[9] = without N2 gas replacement, sodium bisulfite 0.1%, Captisol 10%, brown ampule, irradiation 120 ×10^4 LUX
[10] = without N2 gas replacement, sodium bisulfite 0.1%, Captisol 10%, colorless ampule, irradiation 40 ×10^4 LUX
[11] = without N2 gas replacement, sodium bisulfite 0.1%, Captisol 10%, colorless ampule, irradiation 80 ×10^4 LUX
[12] = without N2 gas replacement, sodium bisulfite 0.1%, Captisol 10%, colorless ampule, irradiation 120 ×10^4 LUX
[13] = 0.1% Tween80 in saline, drug conc. 0.23 mg/mL, 72 hour
[14] = 0.1% Tween80 in saline, drug conc. 0.7 mg/mL, 72 hour
[15] = 0.5% Captisol in saline, drug conc. 0.7 mg/mL, 24 hour
[16] = 1.0% Captisol in saline, drug conc. 0.7 mg/mL, 24 hour
[17] = 2.0% Captisol in saline, drug conc. 0.7 mg/mL, 24 hour
[18] = 3.0% Captisol in saline, drug conc. 0.23 mg/mL, 72 hour
[19] = 3.0% Captisol in saline, drug conc. 0.7 mg/mL, 72 hour
[20] = no solubilizing agent in saline, drug conc. 0.23 mg/mL, 72 hour
[21] = no solubilizing agent in saline, drug conc. 0.7 mg/mL, 72 hour
[22] = no solubilizing agent in saline, drug conc. 2.3 mg/mL, 72 hour

SMILES: Cc1cc(OC[C@@H](O)CN2CCN(c3ccc(Cc4ccc(F)cc4)cc3)CC2)c(C)c(C)c1N [SUN N8075, (2S)-1-(4-amino-2,3,5-trimethylphenoxy)-3-{4-[4-(4-fluorobenzyl)phenyl]-1-piperazinyl}-2-propanol dimethane sulfonate]
- Related Substance Peak ratio [1, 2]: 0.629
- SUN N8075 Peak ratio [1, 2]: 99.37
- Related Substance Peak ratio [1, 3]: 0.608
- SUN N8075 Peak ratio [1, 3]: 99.39
- Related Substance Peak ratio [1, 4]: 0.567
- SUN N8075 Peak ratio [1, 4]: 99.43
- Related Substance Peak ratio [1, 5]: 0.581
- SUN N8075 Peak ratio [1, 5]: 99.42
- Related Substance Peak ratio [1, 6]: 0.967
- SUN N8075 Peak ratio [1, 6]: 99.03
- Related Substance Peak ratio [1, 7]: 1.140
- SUN N8075 Peak ratio [1, 7]: 98.86
- Related Substance Peak ratio [1, 8]: 1.301
- SUN N8075 Peak ratio [1, 8]: 98.70
- Related Substance Peak ratio [1, 9]: 1.750
- SUN N8075 Peak ratio [1, 9]: 98.25
- Related Substance Peak ratio [1, 10]: 4.552
- SUN N8075 Peak ratio [1, 10]: 95.45
- Related Substance Peak ratio [1, 11]: 4.953
- SUN N8075 Peak ratio [1, 11]: 95.05
- Related Substance Peak ratio [1, 12]: 5.987
- SUN N8075 Peak ratio [1, 12]: 94.01
- Blood vessel stimulation (aorta of rat; [13]): Detected
- Precipitation at administration site (aorta of rat; [13]): None*^2
- Blood vessel stimulation (aorta of rat; [14]): Detected
- Precipitation at administration site (aorta of rat; [14]): None*^2
- Blood vessel stimulation (aorta of rat; [15]): None
- Precipitation at administration site (aorta of rat; [15]): None*^2
- Blood vessel stimulation (aorta of rat; [16]): None
- Precipitation at administration site (aorta of rat; [16]): None*^2
- Blood vessel stimulation (aorta of rat; [17]): None
- Precipitation at administration site (aorta of rat; [17]): None*^2
- Blood vessel stimulation (aorta of rat; [18]): None
- Precipitation at administration site (aorta of rat; [18]): None*^2
- Blood vessel stimulation (aorta of rat; [19]): None
- Precipitation at administration site (aorta of rat; [19]): None*^2
- Blood vessel stimulation (aorta of rat; [20]): Detected
- Precipitation at administration site (aorta of rat; [20]): Detected*^1
- Blood vessel stimulation (aorta of rat; [21]): Detected
- Precipitation at administration site (aorta of rat; [21]): Detected*^1
- Blood vessel stimulation (aorta of rat; [22]): Detected
- Precipitation at administration site (aorta of rat; [22]): Detected*^1
